Data set [1] is described as follows: Selectivity index, ratio of IC50 for human MRC5 cells to IC50 for human SNU-638 cells. Particulars: MRC5 cells versus SNU-638 cells, read-out: Selectivity Index. It is filed as toxicity.
The nature of data set [2]: Selectivity index, ratio of IC50 for human MRC5 cells to IC50 for human SK-HEP1 cells. It is filed as toxicity. Particulars: MRC5 cells versus SK-HEP1 cells, read-out: Selectivity Index.
A further data set deals with SK-HEP1. As to the kind of experiment: Antiproliferative activity against human SK-HEP1 cells measured after 72 hrs by SRB assay. In kind it is functional, cell-based. Particulars: SK-HEP1, 72 h.
Data set [3] can be described thus: Selectivity index, ratio of IC50 for human MRC5 cells to IC50 for human A549 cells. It is filed as toxicity. Particulars: MRC5 cells versus A549 cells, read-out: Selectivity Index.
The nature of data set [4]: Selectivity index, ratio of IC50 for human MRC5 cells to IC50 for human HCT-116 cells. It is filed as toxicity. Particulars: MRC5 cells versus HCT-116 cells, read-out: Selectivity Index.
Another data set concerns HCT-116. As to the kind of experiment: Antiproliferative activity against human HCT-116 cells measured after 72 hrs by SRB assay. In kind it is functional, cell-based. Particulars: HCT-116, 72 h. In general terms: In SRB staining, fixed cells bind dye roughly in proportion to their protein.
Data set [5] in a line: Selectivity index, ratio of IC50 for human MRC5 cells to IC50 for human MDA-MB-231 cells. As to conditions: MRC5 cells versus MDA-MB-231 cells, read-out: Selectivity Index. In kind it is toxicity.
In the next data set the test system is MDA-MB-231. As to the kind of experiment: Antiproliferative activity against human MDA-MB-231 cells measured after 72 hrs by SRB assay. In kind it is functional, cell-based. Particulars: MDA-MB-231, 72 h.
Data set [6] can be described thus: Antiproliferative activity against human MRC5 cells measured after 72 hrs by SRB assay. It is filed as toxicity, cell-based.
In another data set the test system is SNU-638. The data set is described as follows: Antiproliferative activity against human SNU-638 cells measured after 72 hrs by SRB assay. It is filed as functional, cell-based. As to conditions: SNU-638, 72 h.
A further data set relates to A549. As to the kind of experiment: Antiproliferative activity against human A549 cells measured after 72 hrs by SRB assay. In kind it is functional, cell-based. As to conditions: A549, 72 h.

Where only a bound is given, the exact number is not on record here.

As for `CCC[C@]1(O)C[C@H](O)[C@@H](C)[C@H]([C@H](C)[C@@H]2C/C=C/C=C/C=C/[C@H](O)C(=O)/C(C)=C/C(C)=C/[C@@H](O)/C(C)=C/CC(=O)O2)O1`, the selectivity ratio in [1] was 7.9; in data set [2] it was 7.2; in data set [3], 2.6; in data set [4], 14.2; in data set [5], 5.5. The IC50 (in general, the point on the concentration scale where inhibition reaches its midpoint) in the data set with SK-HEP1 was 2600 nM; with HCT-116, 1300 nM; in the data set with MDA-MB-231, 3400 nM; with SNU-638, 2400 nM; in the data set on A549 it was 7300 nM. Half-maximal inhibition in data set [6] (IC50 at 72 h) was put at 18700 nM.
`COc1cc([C@@H]2c3cc4c(cc3[C@@H](O[C@@H]3O[C@@H]5CO[C@@H](C)O[C@H]5[C@H](O)[C@H]3O)[C@H]3COC(=O)[C@H]23)OCO4)cc(OC)c1O` [ETOPOSIDE]: the IC50 with SK-HEP1 came to 700 nM; in the data set on HCT-116, 1400 nM; in the data set on MDA-MB-231, 9700 nM; in the data set with A549, 800 nM. This compound came in with an IC50 at 72 h in data set [6] greater than 20000 nM.

The values above are taken from ChEMBL document CHEMBL5137007, “Hamuramicin C, a Cytotoxic Bicyclic Macrolide Isolated from a Wasp Gut Bacterium” (J Nat Prod, 2022).
